Laboratory results from patent publication US20220218664A1, “DRUG AND METHOD FOR TREATING OR PREVENTING COMPLICATIONS FROM DIABETES, USING SAID DRUG” (TMS Co., Ltd., priority 2019, published 2022).

Columns and labels:
Assay type in all cases: in vivo, C57BL/6J male mice
[1] = test system: streptozotocin-induced diabetic mice; assay: Thickness and G-ratio of myelin in the sciatic nerve; conditions: 30 mg/kg i.p. once a day, 4th week
Procedure: (§1) 9-week-old C57BL/6J male mice were purchased and familiarized with an animal facility for 1 week. 200 mg/kg of streptozotocin (streptozotocin; STZ) was administered […] into the peritoneal cavity of 10-week-old mice to prepare streptozotocin-induced diabetic mice (hereinafter also referred to as “STZ administration week 0”). One week after the administration of streptozotocin, blood was collected from the tail vein of the mice, and the blood glucose level (BS) was measured using an automatic blood glucose measuring device (product name: Medisafe (trademark) Mini GR-102, made by Terumo (Co)). Mice having a blood glucose level of 400 mg/dL or more were determined to be diabetic mice.
(§2) The SMTP-44D groups, the edaravone group, and the pregabalin group were administered SMTP-44D (0.3 mg/kg, 3 mg/kg, or 30 mg/kg doses, respectively), edaravone (10 mg/kg dose), or pregabalin (10 mg/kg dose) into the peritoneal cavity once a day for 3 consecutive weeks from the day following the first week to the fourth week after STZ administration.
The above-mentioned STZ group, SMTP-44D (30 mg/kg) group, edaravone group, pregabalin group, and control group mice in the 4th week were dissected to remove the sciatic nerves. The sciatic nerves were fixed using neutral buffered formalin and embedded using an Epon resin, and then semi-thin segments were formed and dyed using toluidine blue. The cross sections of the sciatic nerves in the respective specimens were examined using a microscope equipped with a digital camera at 400× magnification. The thickness of myelin ((diameter of axon including myelin diameter of axon)/2) and G-ratio (diameter of axon/diameter of axon including myelin) were measured.

[2] = test system: streptozotocin-induced diabetic mice; assay: Sciatic nerve blood flow; conditions: 4th week
Procedure: as §1, §2
Sciatic nerves of the above-mentioned STZ group, SMTP-44D groups, edaravone group, pregabalin group, and control group mice on the 4th week were exposed under isoflurane anesthesia, and then, using the full-field laser perfusion imager, their sciatic nerve blood flows (perfusion unit: PU) were measured. After the sciatic nerve blood flows were measured, a voltage was output from a PowerLab through the […] to impart an electrical stimulus to the sciatic nerves using needle electrodes. The electrical stimulus went through the Analog Stimulus Isolator via recording electrodes attached to the gastrocnemius and was input into the PowerLab, and thus neuromuscular function response curves were measured. The sciatic nerves were stimulated between two points at 8-mm intervals. The sciatic nerve conduction velocity (m/s) was calculated by dividing the […]. The sciatic nerve blood flow and sciatic nerve conduction velocity were measured using a Hot-1 small-sized heating controller and small-sized body temperature retention device (model number: […]-1), maintaining the rectal temperature at 37° C. The measurement results are described in Table 11.

TNF-α = assay: Inflammatory cytokine TNF-α in sciatic nerve (ELISA); conditions: 30 mg/kg i.p. once a day, 4th week
Procedure: as §1, §2
The sciatic nerves of the above-mentioned STZ group, SMTP-44D group (30 mg/kg), edaravone group, pregabalin group, and control group mice on the 4th week were homogenized using the RIPA buffer containing a protease inhibitor cocktail. Moreover, centrifugation was conducted at 4° C. for 15 minutes at 10,000 g, and the supernatant was collected and used for measuring TNF-α concentration (pg/mL), IL-1β concentration (pg/mL), IL-6 concentration (pg/mL), and total protein concentration (μg/mL), respectively. An ELISA assay kit was used for the TNF-α, IL-1β, and IL-6 concentrations. The total protein concentration was measured by using a Pierce (trademark) BCA Protein Assay Kit. The inflammatory cytokine level (pg/mg protein) in the total protein was calculated from the TNF-α concentration (pg/mL), IL-1β concentration (pg/mL), and IL-6 concentration (pg/mL), and total protein concentration (μg/mL).

[3] = test system: streptozotocin-induced diabetic mice; assay: Hind plantar blood flow (laser perfusion imager)
Procedure: as §1, §2
The hind plantar blood flows (perfusion unit: PU) of the above-mentioned STZ group, SMTP-44D groups, edaravone group, pregabalin group, and control group mice were measured under isoflurane anesthesia using a full-field laser perfusion imager.

[4] = test system: streptozotocin-induced diabetic mice; assay: Hot plate test: evaluating thermal stimulus
Procedure: as §1, §2
The above-mentioned STZ group, SMTP-44D groups, edaravone group, pregabalin group, and control group mice were put in grid-like boxes, respectively, and were left for 30 minutes. After having been left, an acrylic disc (diameter: 20 cm; height (that is, thickness of the acrylic disc): […]) was placed on an EC hot plate (model number: EC1200) maintained at 49 to 50° C., and the mice were put on the acrylic disc. The measurements were started after the mice landed on the EC hot plate. The times from the mice landing to their action to jump or lick their hind legs were evaluated as thermal thresholds (seconds: s). Note, to avoid burns on their plantae, the measurements were ceased 30 seconds after beginning. The measurements were conducted three times at 30-minute intervals. A mean value of three thermal thresholds (seconds: s) was calculated for 1 mouse, and then a mean value of the 12 mice for the respective groups was found.

[5] = 0.3 mg/kg i.p. once a day, 0th week (before dosing)
[6] = 0.3 mg/kg i.p. once a day, 1st week (before dosing)
[7] = 0.3 mg/kg i.p. once a day, 2nd week
[8] = 0.3 mg/kg i.p. once a day, 3rd week
[9] = 0.3 mg/kg i.p. once a day, 4th week
[10] = 3 mg/kg i.p. once a day, 0th week (before dosing)
[11] = 3 mg/kg i.p. once a day, 1st week (before dosing)
[12] = 3 mg/kg i.p. once a day, 2nd week
[13] = 3 mg/kg i.p. once a day, 3rd week
[14] = 3 mg/kg i.p. once a day, 4th week
[15] = 30 mg/kg i.p. once a day, 0th week (before dosing)
[16] = 30 mg/kg i.p. once a day, 1st week (before dosing)
[17] = 30 mg/kg i.p. once a day, 2nd week
[18] = 30 mg/kg i.p. once a day, 3rd week
[19] = 30 mg/kg i.p. once a day, 4th week

Compound: CC(C)=CCCC(C)=CCCC1(C)Oc2c(c(O)cc3c2CN(C(C(=O)O)c2ccc(O)cc2)C3=O)CC1O (centres unmarked) [SMTP-44D]
- Thickness of myelin [1]: 1.58±0.02 μm
- Sciatic nerve blood flow ([2]; 0.3 mg/kg i.p. once a day): 1116.9±30.4 PU
- Sciatic nerve blood flow ([2]; 3 mg/kg i.p. once a day): 1187.1±31.4 PU
- Sciatic nerve blood flow ([2]; 30 mg/kg i.p. once a day): 1461.0±55.0 PU
- TNF-α (TNF-α): 15.22±2.51 pg/mg protein
- Hind plantar blood flow [3, 5]: 199.8±9.8 PU
- Hind plantar blood flow [3, 6]: 150.7±9.4 PU
- Hind plantar blood flow [3, 7]: 152.9±8.7 PU
- Hind plantar blood flow [3, 8]: 141.0±8.7 PU
- Hind plantar blood flow [3, 9]: 132.3±6.6 PU
- Hind plantar blood flow [3, 10]: 210.7±14.1 PU
- Hind plantar blood flow [3, 11]: 154.8±12.8 PU
- Hind plantar blood flow [3, 12]: 169.3±7.9 PU
- Hind plantar blood flow [3, 13]: 161.3±11.8 PU
- Hind plantar blood flow [3, 14]: 162.1±9.8 PU
- Hind plantar blood flow [3, 15]: 201.4±6.8 PU
- Hind plantar blood flow [3, 16]: 142.7±7.1 PU
- Hind plantar blood flow [3, 17]: 185.0±8.4 PU
- Hind plantar blood flow [3, 18]: 234.7±11.2 PU
- Hind plantar blood flow [3, 19]: 214.9±12.2 PU
- Hot plate test thermal threshold [4, 5]: 22.8 ± 1.2 s
- Hot plate test thermal threshold [4, 6]: 14.3 ± 1.0 s
- Hot plate test thermal threshold [4, 7]: 14.0 ± 1.4 s
- Hot plate test thermal threshold [4, 8]: 13.3 ± 1.3 s
- Hot plate test thermal threshold [4, 9]: 13.1 ± 0.6 s
- Hot plate test thermal threshold [4, 10]: 21.0 ± 1.3 s
- Hot plate test thermal threshold [4, 11]: 14.6 ± 1.4 s
- Hot plate test thermal threshold [4, 12]: 15.4 ± 0.8 s
- Hot plate test thermal threshold [4, 13]: 15.1 ± 1.1 s
- Hot plate test thermal threshold [4, 14]: 15.1 ± 1.3 s
- Hot plate test thermal threshold [4, 15]: 21.3 ± 0.4 s
- Hot plate test thermal threshold [4, 16]: 15.0 ± 0.7 s
- Hot plate test thermal threshold [4, 17]: 18.0 ± 1.2 s
- Hot plate test thermal threshold [4, 18]: 18.4 ± 1.3 s
- Hot plate test thermal threshold [4, 19]: 18.2 ± 1.1 s
